Eleven molecules from patent publication US20240270744A1 (Hoffmann-La Roche Inc., priority 2021, published 2024) can be followed below.

For assay [1], the target named is human GABAA α2β2γ1 receptor (Homo sapiens (Human), UniProt P47869+Q8N1C3). Description: Radioligand binding assay, competition for [3H]RO7239181, γ1-containing GABAA subtypes. The settings on record: for LogSel: Log of the γ2/γ1 Ki ratio. As to the method: The affinity of compounds at GABAA γ1 subunit-containing receptors was measured by competition for [^3H]RO7239181 (67.3 Ci/mmol; Roche) binding to membranes from HEK293F cells (ThermoFisher R79007) expressing human (transiently transfected) receptors of composition α5β2γ1, α2β2γ1, α1β2γ1.
(§1) Harvested pellets from HEK293F cells expressing the different GABAA receptor subtypes were resuspended in Mannitol Buffer pH 7.2-7.4 (Mannitol 0.29 M, Triethylamine 10 mM, Acetic acid 10 mM, EDTA 1 mM plus protease inhibitors (20 tablets Complete, Roche Diagnostics Cat. No. 05 056 489 001 per liter)), washed two times and then resuspended at 1:10 to 1:15 dilution in the same buffer. Cell disruption was performed by stirring the suspension in a Parr vessel #4637 at 435 psi for 15 minutes, and then the suspensions were centrifuged at 1000×g for 15 minutes at 4° C. (Beckman Avanti J-HC: rotor JS-4.2). The supernatant (S1) was transferred in a 21 Schott flask and the pellet (P1) was resuspended with Mannitol Buffer up to 175 ml. The resuspended pellet was transferred into a 250 ml Corning centrifugal beaker and centrifuged at 1500×g for 10 minutes at 4° C. (Beckman Avanti J-HC: rotor JS-4.2). The supernatant (S1) was then transferred in the 21 Schott flask and the pellet was discarded. The supernatants (S1) were centrifuged in 500 ml Beckman polypropylene centrifugal beaker at 15′000×g for 30 minutes at 4° C. (Beckman Avanti J-20 XP; rotor JLA-10.500). The pellet (P2) was resuspended with Mannitol Buffer 1:1 and frozen at −80° C. The supernatant (S2) was centrifuged in 100 ml Beckman polypropylene centrifugal tubes at 48000×g for 50 minutes at 4° C. (Beckman Avanti J-20 XP; rotor JA-18). The supernatant (S3) was discarded and the pellet (P3) was resuspended with 1:1 Mannitol Buffer. The P2 and P3 protein concentration was determined with the BIORAD Standard assay method with bovine serum albumin as standard and measured on the NANO-Drop 1000. The membrane suspension was aliquots (500 μl per tube) and stored at −80° C. until required.
(§2) Membrane homogenates were resuspended and polytronised (Polytron PT1200E Kinematica AG) in Potassium Phosphate 10 mM, KCl 100 mM binding buffer at pH 7.4 to a final assay concentration determined with a previous experiment.
(§3) Assays were incubated to equilibrium for 1 hour at 4° C. and then, membranes were filtered onto unifilter (96-well white microplate with bonded GF/C filters preincubated 20-50 minutes in 0.3% Polyethylenimine) with a Filtermate 196 harvester (Packard BioScience) and washed 4 times with cold Potassium Phosphate 10 mM pH 7.4, KCl 100 mM binding buffer. After anhydrousing, filter-retained radioactivity was detected by liquid scintillation counting. Ki values were calculated using Excel-Fit (Microsoft) and are the means of two determinations.

Assay [2] concerns the target human GABAA α5β2γ1 receptor (Homo sapiens (Human), UniProt P31644+Q8N1C3). Described as above. The settings on record: Table 1; [3H]RO7239181 displacement, membranes from HEK293F cells, mean of two determinations. As to the method:
The affinity of compounds at GABAA γ1 subunit-containing receptors was measured by competition for [^3H]RO7239181 (67.3 Ci/mmol; Roche) binding to membranes from HEK293F cells (ThermoFisher R79007) expressing human (transiently transfected) receptors of composition α5β2γ1, α2β2γ1, α1β2γ1. For better protein expression of the α2 subunit-containing receptors, the 28 amino acid long signal peptide (Met1 to Ala28) of the human GABAA α2 subunit was substituted by the 31 amino acid long signal peptide (Met1 to Ser31) of human GABAA α5 subunit.
as §1, §2
as §3, with “Radioligand binding assays were carried out in a volume of 200 μL (96-well plates) which contained 100 μL of cell membranes, [3H]RO7239181 at a concentration of 1.5 nM (α5β2γ1) or 20-30 nM (α1β2γ1, α2β2γ1) and the test compound in the range of [0.3-10000]=10^−9 M. Nonspecific binding was defined by 10×10^−6 (α5β2γ1) and 30×10^−6 M RO7239181 and typically represented less than 5% (α5β2γ1) and less than 20% (β1β2γ1, α2β2γ1) of the total binding. Assays” for “Assays”
Representative test results, obtained by the above described assay measuring binding affinity to HEK293 cells expressing human (h) receptors, are shown in the Table 1.

Where [3] appears, read: Ki h-GABAA α2β2γ1, Table 1, [3H]RO7239181 displacement, membranes from HEK293F cells, mean of two determinations.
[4] abbreviates: Ki h-GABAA α2β2γ1, Table 2, [3H]RO7239181 displacement.
[5] abbreviates: Table 1, Ki α1β3γ2 (nM)/Ki α2β2γ1 (nM).

Take `C[C@@H]1N=C(c2c(F)cccc2F)c2c(cnc(C(F)(F)F)c2Cl)-n2nc(C(=O)N3CC(O)C3)nc21` [Example 8, [(7S)-11-chloro-9-(2,6-difluorophenyl)-7-methyl-12-(trifluoromethyl)-2,3,5,8,13-pentazatricyclo[8.4.0.02,6]tetradeca-1(10),3,5,8,11,13-hexaen-4-yl]-(3-hydroxyazetidin-1-yl)methanone]: the inhibition constant Ki was found to be 14.6 nM in assay [1] (setting [3]), 14.6 nM in assay [1] (setting [4]) and 2.5 nM in assay [2]. Moreover, the “γ2/γ1 Selectivity Ratio” value in assay [1] (setting [5]) was determined as 255. Also, the LogSel in assay [1] (Table 1) is 2.41.

Regarding `Cc1nnc2n1-c1cnc(Cl)c(Cl)c1C(c1c(F)cccc1F)=N[C@H]2C` [Example 1, (7S)-11,12-dichloro-9-(2,6-difluorophenyl)-3,7-dimethyl-2,4,5,8,13-pentazatricyclo[8.4.0.02,6]tetradeca-1(10),3,5,8,11,13-hexaene], the Ki worked out at 31.7 nM in assay [1] (setting [3]), 31.7 nM in assay [1] (setting [4]) and 2.4 nM in assay [2]. The “γ2/γ1 Selectivity Ratio” value in assay [1] (setting [5]) came to 34. For the same molecule, in assay [1] (Table 1), the LogSel amounted to 1.53.

In the case of `C[C@@H]1N=C(c2c(F)cccc2F)c2c(cnc(C(F)(F)F)c2Cl)-n2nc(N3CCCC3=O)nc21` [Example 13, 1-[(7S)-11-chloro-9-(2,6-difluorophenyl)-7-methyl-12-(trifluoromethyl)-2,3,5,8,13-pentazatricyclo[8.4.0.02,6]tetradeca-1(10),3,5,8,11,13-hexaen-4-yl]pyrrolidin-2-one], the inhibition constant (Ki) was 32 nM in assay [1] (setting [3]), 32 nM in assay [1] (setting [4]) and 3.1 nM in assay [2]. In addition, the “γ2/γ1 Selectivity Ratio” value in assay [1] (setting [5]) is reported as 166. In assay [1] (Table 1), the LogSel was 2.22.

On to `Cc1nnc2n1-c1cnc(C(F)(F)F)c(Cl)c1C(c1c(F)cccc1F)=N[C@H]2C` [Example 4, (7S)-11-chloro-9-(2,6-difluorophenyl)-3,7-dimethyl-12-(trifluoromethyl)-2,4,5,8,13-pentazatricyclo[8.4.0.02,6]tetradeca-1(10),3,5,8,11,13-hexaene], for which the inhibitory constant (Ki) in assay [1] (setting [3]) amounted to 64.3 nM; in assay [1] (setting [4]), 64.3 nM; in assay [1] (Ki h-GABAA α2β2γ1, Table 3, reference compounds comparison), 64.3 nM; in assay [2] it was 4.9 nM. Moreover, the “γ2/γ1 Selectivity Ratio” value in assay [1] (setting [5]) is recorded as 113; in assay [1] (Table 3, Ki α1β3γ2/Ki α2β2γ1), 113. In addition, the LogSel was 2.05 in assay [1] (Table 1) and 2.1 in assay [1] (Table 3).

With `COC1CN(C(=O)c2nc3n(n2)-c2cnc(C(F)(F)F)c(Cl)c2C(c2c(F)cccc2F)=N[C@H]3C)C1` [Example 9, [(7S)-11-chloro-9-(2,6-difluorophenyl)-7-methyl-12-(trifluoromethyl)-2,3,5,8,13-pentazatricyclo[8.4.0.02,6]tetradeca-1(10),3,5,8,11,13-hexaen-4-yl]-(3-methoxyazetidin-1-yl)methanone], the inhibition constant Ki in assay [1] (setting [3]) is 19.9 nM; in assay [1] (setting [4]) it was 19.9 nM; in assay [2], 7.1 nM. The “γ2/γ1 Selectivity Ratio” value in assay [1] (setting [5]) is 170. Further, the LogSel in assay [1] (Table 1) is 2.23.

For the molecule `C[C@@H]1N=C(c2c(F)cccc2F)c2c(cnc(C(F)(F)F)c2Cl)-n2nc(C(=O)N3CC(F)C3)nc21` [Example 7, [(7S)-11-chloro-9-(2,6-difluorophenyl)-7-methyl-12-(trifluoromethyl)-2,3,5,8,13-pentazatricyclo[8.4.0.02,6]tetradeca-1(10),3,5,8,11,13-hexaen-4-yl]-(3-fluoroazetidin-1-yl)methanone], the Ki in assay [1] (setting [3]) was found to be 20.2 nM; in assay [1] (setting [4]) it was 20.2 nM; in assay [2], 3.5 nM. Also, the “γ2/γ1 Selectivity Ratio” value in assay [1] (setting [5]) turned out to be 253. Also, the LogSel in assay [1] (Table 1) was 2.40.

As for `C[C@@H]1N=C(c2c(F)cccc2F)c2c(cnc(C(F)(F)F)c2Cl)-n2nc(C(=O)NCC3(O)CC3)nc21` [Example 22, (7S)-11-chloro-9-(2,6-difluorophenyl)-N-[(1-hydroxycyclopropyl)methyl]-7-methyl-12-(trifluoromethyl)-2,3,5,8,13-pentazatricyclo[8.4.0.02,6]tetradeca-1(10),3,5,8,11,13-hexaene-4-carboxamide], the values for the Ki in assay [1] (setting [3]), in assay [1] (setting [4]) and in assay [2] were 43.2 nM, 43.2 nM and 6.4 nM, respectively. The “γ2/γ1 Selectivity Ratio” value in assay [1] (setting [5]) was 245. Further, in assay [1] (Table 1), the LogSel is reported as 2.39.

As for `C[C@H](O)CNC(=O)c1nc2n(n1)-c1cnc(C(F)(F)F)c(Cl)c1C(c1c(F)cccc1F)=N[C@H]2C` [Example 14, (7S)-11-chloro-9-(2,6-difluorophenyl)-N-[(2S)-2-hydroxypropyl]-7-methyl-12-(trifluoromethyl)-2,3,5,8,13-pentazatricyclo[8.4.0.02,6]tetradeca-1(10),3,5,8,11,13-hexaene-4-carboxamide], the results for the Ki in assay [1] (setting [3]), in assay [1] (setting [4]) and in assay [2] were 46 nM, 39.2 nM and 3.7 nM, respectively. For the same molecule, the “γ2/γ1 Selectivity Ratio” value in assay [1] (setting [5]) is recorded as 190. The LogSel in assay [1] (Table 1) came out at 2.28.

Turning to `C[C@@H]1N=C(c2c(F)cccc2F)c2c(cnc(C(F)(F)F)c2Cl)-n2nc(C(=O)N3CCS(=O)(=O)CC3)nc21` [Example 11, [(7S)-11-chloro-9-(2,6-difluorophenyl)-7-methyl-12-(trifluoromethyl)-2,3,5,8,13-pentazatricyclo[8.4.0.02,6]tetradeca-1(10),3,5,8,11,13-hexaen-4-yl]-(1,1-dioxo-1,4-thiazinan-4-yl)methanone], the figures for the Ki in assay [1] (setting [3]), in assay [1] (setting [4]) and in assay [2] were 9.6 nM, 9.6 nM and 4.6 nM, respectively. Also, in assay [1] (setting [5]), the “γ2/γ1 Selectivity Ratio” value amounted to 818. In addition, the LogSel in assay [1] (Table 1) is reported as 2.91.

Regarding `C[C@@H]1N=C(c2c(F)cccc2F)c2c(cnc(C(F)(F)F)c2Cl)-n2c1nc1c2CCC1` [Example 20, (10S)-6-chloro-8-(2,6-difluorophenyl)-10-methyl-5-(trifluoromethyl)-1,4,9,12-tetrazatetracyclo[9.6.0.02,7.013,17]heptadeca-2(7),3,5,8,11,13(17)-hexaene], the Ki in assay [1] (setting [3]) was determined as 11.8 nM; in assay [1] (setting [4]), 15.1 nM; in assay [2], 4.9 nM. In addition, the “γ2/γ1 Selectivity Ratio” value in assay [1] (setting [5]) is reported as 92. Also, the LogSel in assay [1] (Table 1) was 1.96.

Take `Cc1ncc2c(c1Cl)C(c1c(F)cccc1F)=N[C@@H](C)c1nnc(C)n1-2` [Example 3, (7S)-11-chloro-9-(2,6-difluorophenyl)-3,7,12-trimethyl-2,4,5,8,13-pentazatricyclo[8.4.0.02,6]tetradeca-1(10),3,5,8,11,13-hexaene]: the inhibitory constant (Ki) in assay [1] (setting [3]) came to 51.6 nM; in assay [1] (setting [4]), 51.6 nM; in assay [2], 4.7 nM. For the same molecule, in assay [1] (setting [5]), the “γ2/γ1 Selectivity Ratio” value was found to be 35. The LogSel in assay [1] (Table 1) is 1.54.

In general, Ki refers to the equilibrium dissociation constant of an inhibitor or competing ligand from its target.
